Experimental data as given in patent EP2072521A1, “Octahedral metal (III) polypyridyl complexes and their use in prevention and treatment of cancer” (Freie Universität Berlin, priority 2007, dated 2009).
Where two headings read alike, the source gives them in different places.

What was measured:
[1] = test system: HT-29 human colon carcinoma cells; experiment: Antiproliferative effects, crystal violet staining, HT-29 cells; format: cell-based
Method: (§1) MCF-7 breast cancer and HT-29 human colon carcinoma cells were maintained in 10 % (v/v) fetal calf serum containing cell culture medium (minimum essential eagle supplemented with 2.2 g NaHCO3, 110 mg/L sodium pyruvate and 50 mg/L gentamicin sulfate adjusted to pH 7.4) at 37°C/5 % CO2 and passaged twice a week according to standard procedures. The antiproliferative effects of Rh1a - Rh5a were determined by an established procedure. Cells were suspended in cell culture medium (MCF-7: 10000 cells/mL, HT-29: 2850 cells/mL), and 100 µL aliquots thereof were plated in 96 well plates and incubated at 37°C/5 % CO2 for 72 h (MCF-7) or 48 h (HT-29). Stock solutions of the compounds in DMSO were freshly prepared and diluted with cell culture medium to the desired concentrations (final DMSO concentration: 0.1 % v/v). The medium in the plates was replaced with the medium containing the compounds in graded concentrations (six replicates). After further incubation for 96 h (MCF-7) or 72 h (HT-29) the cell biomass was determined by crystal violet staining and the IC50 values were established as those concentrations causing 50 % inhibition of cell proliferation. Results were calculated from 2 - 3 independent experiments. The results are summarized in Tab. 1 and Fig. 4. Table 1 IC50 values (µM) for the complexes mer-[RhCl3(DMSO)(pp)] Rh1a - Rh5a
(§2) The antiproliferative effects of the compounds Ir1a - Ir5a were determined as described in Example 2.

HT-29 = experiment: Cellular uptake of iridium (GF-AAS), HT-29 cells; format: cell-based, human; details: 6 h, 0.0: value below the detection limit; for HT-29 uptake 10 µM: 10 µM complex; for HT-29 uptake 100 µM: 100 µM complex
Method: (§3) For cellular uptake studies, HT-29 and MCF-7 cells were grown until at least 70 % confluency in 175 cm^2 cell culture flasks. Stock solutions of complexes Ir1a - Ir5a in DMSO were freshly prepared and diluted with cell culture medium to the desired concentrations (final DMSO concentrations: 0.1 % v/v, final complex concentration: 10 or 100 µM). The cell culture medium of the cell culture flasks was replaced with 10 mL of the cell culture medium solutions containing Ir1a - Ir5a (10 µM or 100 µM) and the flasks were incubated for 6 h at 37°C/5 % CO2. The cell pellets were isolated, resuspended in 1 - 5 mL […], lysed by using a sonotrode and approximately diluted using twice distilled water. The iridium content of the samples was determined by graphite furnace atomic absorption spectroscopy (GF-AAS) and the protein content of separate aliquots by the Bradford method. To correct for matrix effects in GF-AAS measurements, samples and standards were adjusted to the same protein concentration by dilution with twice distilled water. Prior to GF-AAS analysis 20 µL triton X-100 (1 %) and 20 µL hydrochloric acid were added to each 200 µL sample of the cell suspensions. Cellular uptake was expressed as ng iridium per mg cell protein for data obtained from 3 independent experiments. Conversion of the ng iridium/mg protein value to the micromolar cellular concentration was performed as described previously.
(§4) A Vario 6 graphite furnace atomic absorption spectrometer (Analytik Jena) was employed for the lr quantification using a wavelength of 208.9 nm with a bandpass of 0.5 nm. A deuterium lamp was used for background correction. Matrix containing standards were obtained by addition of an iridium stock solution (1 mg/mL lr in 5 % HCl). 18 % hydrochloric acid solution was employed as a modifier. Probes were injected at a volume of 25 µL into graphite tubes. The detection limit for the method was 3.8 µg Ir L^-1. The mean AUC (area under curve) absorptions of duplicate injections were used throughout the study.

MCF-7 breast cancer [2] = experiment: Antiproliferative effects, crystal violet staining, MCF-7 cells; format: cell-based, human
Method: as §1, §2

MCF-7 cells = experiment: Cellular uptake of iridium (GF-AAS), MCF-7 cells; format: cell-based, human; details: 6 h; for MCF-7 uptake 10 µM: 10 µM complex, 0.0: value below the detection limit; for MCF-7 uptake 100 µM: 100 µM complex
Method: as §3, §4

mouse P 388 leukemia = details: reference [2]; cited from earlier work
[3] = references [3], [4]; cited from earlier work
Calu (lung carcinoma) = details: Mestroni et al. [1]; cited from earlier work
[4] = test system: A 2780 (ovarian carcinoma); details: Mestroni et al. [1]; cited from earlier work
LoVo (colon carcinoma) = details: Mestroni et al. [1]; cited from earlier work
tumour cell lines = details: references [7, 8]; cited from earlier work
[5] = Stability and isomerization in solution (1H NMR); format: physicochemical; details: in DMSO
[6] = test system: HT-29 human colon carcinoma cells; details: references [5, 6]; cited from earlier work
MCF-7 breast cancer [7] = details: references [5, 6]; cited from earlier work
[8] = Table 2, determined as described in Example 2
[9] = Table 1, 72 h incubation, 2 - 3 independent experiments, spread in parentheses
[10] = Table 1, 96 h incubation, 2 - 3 independent experiments, spread in parentheses

**Q.** With CO.C[S+](C)(=O)[Ir-3]1([Cl])([Cl])([Cl])[n+]2cccc3ccc4ccc[n+]1c4c32.O [Ir2a, fac-[IrCl3(DMSO)(phen)]·CH3OH·H2O] as the compound, how does the IC50 [1, 8] read?
**A.** 4600 nM

**Q.** And the “HT-29 uptake 10 µM” value (HT-29)?
**A.** 0.0 ng Ir/mg protein

**Q.** And the “HT-29 uptake 100 µM” value (HT-29)?
**A.** 21.2(5.2) ng Ir/mg protein

**Q.** What about the IC50 (MCF-7 breast cancer [2]; [8]) of the same compound?
**A.** 4600 nM

**Q.** And the “MCF-7 uptake 10 µM” value (MCF-7 cells)?
**A.** 0.0 ng Ir/mg protein

**Q.** What about the “MCF-7 uptake 100 µM” value (MCF-7 cells) of the same compound?
**A.** 74.4(13.5) ng Ir/mg protein

**Q.** With mer,cis-[RhCl3(DMSO-κS)(py)2] as the compound, how does the “Activity against mouse P 388 leukemia” value (mouse P 388 leukemia) read?
**A.** Activity

**Q.** For fac-[IrC/3(DMSO)(dpq)·3H2O [Ir3a], which IC50 [1, 8] is on record?
**A.** 6100 nM

**Q.** What about the “HT-29 uptake 10 µM” value (HT-29) of the same compound?
**A.** 0.0 ng Ir/mg protein

**Q.** What about the “HT-29 uptake 100 µM” value (HT-29) of the same compound?
**A.** 167.8(3.4) ng Ir/mg protein

**Q.** What about the IC50 (MCF-7 breast cancer [2]; [8]) of the same compound?
**A.** 5500 nM

**Q.** What about the “MCF-7 uptake 10 µM” value (MCF-7 cells) of the same compound?
**A.** 0.3(0.3) ng Ir/mg protein

**Q.** And the “MCF-7 uptake 100 µM” value (MCF-7 cells)?
**A.** 640.5(148.9) ng Ir/mg protein

**Q.** Which IC50 [1, 9] does the source give for N.N.[Cl][Pt][Cl] [Cisplatin, reference compound] here?
**A.** 7000 nM

**Q.** And the IC50 [1, 8]?
**A.** 7000 nM

**Q.** And the IC50 (MCF-7 breast cancer [2]; [10])?
**A.** 2000 nM

**Q.** And the IC50 (MCF-7 breast cancer [2]; [8])?
**A.** 2000 nM

**Q.** Which IC50 [1, 9] does the source give for mer-[RhCl3(DMSO)(dppz)]·1.5H2O [Rh4a] here?
**A.** 73 nM

**Q.** What about the IC50 (MCF-7 breast cancer [2]; [10]) of the same compound?
**A.** 95 nM

**Q.** With C1CSCCSCCN1.[Cl][Rh]([Cl])[Cl] [fac-[RhCl3(9-[ane]-NS2)]] as the compound, how does the cytotoxicity [3] read?
**A.** exhibit cytotoxicity

**Q.** What does the source list for c1ccc2nc3c4cccnc4c4ncccc4c3nc2c1 [dppz, dipyrido[3,2-a:2',3'-c]phenazine, reference compound]?
**A.** IC50 ([1]; Homo sapiens, HT-29, Table 1, 72 h incubation, 2 - 3 independent experiments, spread in parentheses): 1800 nM; IC50 ([1]; Homo sapiens, HT-29, Table 2, determined as described in Example 2): 1800 nM; IC50 (MCF-7 breast cancer [2]; Homo sapiens, MCF7, Table 1, 96 h incubation, 2 - 3 independent experiments, spread in parentheses): 800 nM; IC50 (MCF-7 breast cancer [2]; Homo sapiens, MCF7, Table 2, determined as described in Example 2): 800 nM

**Q.** Which IC50 (Calu (lung carcinoma)) does the source give for mer,cis-[RhCl3(DMSO-κS)(Im)2] here?
**A.** > 200000 nM

**Q.** And the IC50 [4]?
**A.** > 200000 nM

**Q.** And the IC50 (LoVo (colon carcinoma))?
**A.** 40000 ± 15000 nM

**Q.** For “[(DMSO)2H] [[(DMSO)2H] [trans-IrCl4(DMSO)2]]”, which biological activity (tumour cell lines) is on record?
**A.** biologically inactive

**Q.** For [Cl][Ir-]([Cl])([Cl])[Cl].c1c[nH+]c[nH]1.c1c[nH]cn1.c1c[nH]cn1 [[ImH][trans-IrCl4(Im)2]], which biological activity (tumour cell lines) is on record?
**A.** biologically inactive

**Q.** With mer-[RhCl3(DMSO)(phen)]·H2O [Rh2a] as the compound, how does the IC50 [1, 9] read?
**A.** 190 nM

**Q.** What about the isomerization [5] of the same compound?
**A.** isomerize rapidly to a mixture of fac- and mer-isomers

**Q.** And the IC50 (MCF-7 breast cancer [2]; [10])?
**A.** 400 nM

**Q.** With fac-[IrC/3(DMSO)(dppz)]·2H2O [Ir4a] as the compound, how does the IC50 [1, 8] read?
**A.** 1500 nM

**Q.** What about the “HT-29 uptake 10 µM” value (HT-29) of the same compound?
**A.** 11.9(3.0) ng Ir/mg protein

**Q.** And the “HT-29 uptake 100 µM” value (HT-29)?
**A.** 1664.4(473.1) ng Ir/mg protein

**Q.** And the IC50 (MCF-7 breast cancer [2]; [8])?
**A.** 800 nM

**Q.** What about the “MCF-7 uptake 10 µM” value (MCF-7 cells) of the same compound?
**A.** 3.3(3.3) ng Ir/mg protein

**Q.** What about the “MCF-7 uptake 100 µM” value (MCF-7 cells) of the same compound?
**A.** 644.0(149.1) ng Ir/mg protein

**Q.** For fac-[IrCl3(DMSO)(bpy)·2H2O [Ir1a], which IC50 [1, 8] is on record?
**A.** > 100000 nM

**Q.** And the “HT-29 uptake 10 µM” value (HT-29)?
**A.** 0.0 ng Ir/mg protein

**Q.** And the “HT-29 uptake 100 µM” value (HT-29)?
**A.** 0.0 ng Ir/mg protein

**Q.** What about the IC50 (MCF-7 breast cancer [2]; [8]) of the same compound?
**A.** > 100000 nM

**Q.** Which IC50 [1, 8] does the source give for fac-[IrCl3(DMSO)(dppn)]·2CH3OH [Ir5a] here?
**A.** 1300 nM

**Q.** What about the “HT-29 uptake 10 µM” value (HT-29) of the same compound?
**A.** 37.4(8.9) ng Ir/mg protein

**Q.** What about the “HT-29 uptake 100 µM” value (HT-29) of the same compound?
**A.** 226.1(26.6) ng Ir/mg protein

**Q.** And the IC50 (MCF-7 breast cancer [2]; [8])?
**A.** 210 nM

**Q.** And the “MCF-7 uptake 10 µM” value (MCF-7 cells)?
**A.** 19.3(0.8) ng Ir/mg protein

**Q.** What about the “MCF-7 uptake 100 µM” value (MCF-7 cells) of the same compound?
**A.** 180.8(2.7) ng Ir/mg protein

**Q.** For “[(η^5-C5Me5)Ir{(Me2N)2CS}(dppn)](CF3SO3) [compound 7, reference compound]”, which IC50 [1, 8] is on record?
**A.** 410 nM

**Q.** What about the “HT-29 uptake 10 µM” value (HT-29) of the same compound?
**A.** 149.6(7.8) ng Ir/mg protein

**Q.** What about the IC50 (MCF-7 breast cancer [2]; [8]) of the same compound?
**A.** 170 nM

**Q.** With mer-[RhCl3(DMSO)(dppn)] [Rh5a] as the compound, how does the IC50 [1, 9] read?
**A.** 70 nM

**Q.** And the IC50 (MCF-7 breast cancer [2]; [10])?
**A.** 51 nM

**Q.** With [Rh(Im)(tpy)2]Cl·3H2O as the compound, how does the cytotoxicity [3] read?
**A.** exhibit cytotoxicity

**Q.** For “[(η^5-C5Me5)IrCl(dppz)](CF3SO3) [compound 6, reference compound]”, which IC50 [1, 8] is on record?
**A.** 7400 nM

**Q.** What about the IC50 [6] of the same compound?
**A.** 7400 nM

**Q.** And the “HT-29 uptake 10 µM” value (HT-29)?
**A.** 70.4(1.0) ng Ir/mg protein

**Q.** And the IC50 (MCF-7 breast cancer [2]; [8])?
**A.** 2300 nM

**Q.** And the IC50 (MCF-7 breast cancer [7])?
**A.** 2300 nM

**Q.** With mer-[RhCl3(DMSO)(bpy)] [Rh1a] as the compound, how does the IC50 [1, 9] read?
**A.** 1900 nM

**Q.** What about the isomerization [5] of the same compound?
**A.** isomerize rapidly to a mixture of fac- and mer-isomers

**Q.** And the IC50 (MCF-7 breast cancer [2]; [10])?
**A.** 4000 nM

**Q.** What does the source list for mer-[RhCl3(DMSO)(dpq)] [Rh3a]?
**A.** IC50 [1, 9]: 69 nM; IC50 (MCF-7 breast cancer [2]; [10]): 79 nM

**Q.** With [Cl][Rh]([Cl])[Cl].c1ccc(-c2cccc(-c3ccccn3)n2)nc1 [mer-[RhCl3(tpy)]] as the compound, how does the cytotoxicity [3] read?
**A.** exhibit cytotoxicity

**Q.** Which biological activity (tumour cell lines) does the source give for [ImH][trans-IrCl4(DMSO)(Im)] here?
**A.** biologically inactive
